Measurements from PMC7873226, “Molecular mechanism and structural basis of small-molecule modulation of the gating of acid-sensing ion channel 1” (Communications Biology, 2021).
Read-outs that look alike come from different tables or passages of the source.

Tests used:
[1] = target: T1, rat ASIC1a (Rattus norvegicus, UniProt P55926); assay: Whole-cell patch clamp: inhibition of acid-induced current in CHO cells stably expressing rat ASIC1a; type: cell-based
T1 construct: expressed in transfected cells
T1 sequence (P55926 1-526): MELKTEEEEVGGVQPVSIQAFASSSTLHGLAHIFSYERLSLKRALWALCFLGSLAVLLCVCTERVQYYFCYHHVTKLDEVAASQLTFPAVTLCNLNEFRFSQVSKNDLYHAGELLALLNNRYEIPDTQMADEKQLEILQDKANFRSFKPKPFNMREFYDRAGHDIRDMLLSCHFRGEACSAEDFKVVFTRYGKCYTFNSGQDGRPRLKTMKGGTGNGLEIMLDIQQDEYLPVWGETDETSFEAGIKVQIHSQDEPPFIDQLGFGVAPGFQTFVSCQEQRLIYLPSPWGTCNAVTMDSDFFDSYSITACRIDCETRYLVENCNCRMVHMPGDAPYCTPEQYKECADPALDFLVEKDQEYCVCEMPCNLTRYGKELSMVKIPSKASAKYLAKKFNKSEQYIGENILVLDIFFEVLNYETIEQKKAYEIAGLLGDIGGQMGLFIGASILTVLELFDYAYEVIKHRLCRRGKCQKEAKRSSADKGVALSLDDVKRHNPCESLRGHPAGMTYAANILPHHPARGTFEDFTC
Method: (§1) Chinese Hamster Ovary (CHO) cells stably expressing rat ASIC1a were cultured in Ham’s F12, supplemented with 10% FBS, 1% penicillin–streptomycin and 500 µg/mL G418 and incubated at 37 °C with 5% CO2. Transient transfections of rASIC1a and cASIC1 wild-type or mutant channels in CHO cells were performed with Lipofectamine 3000 (Thermo Fisher Scientific) according to the manufacturer’s recommendations. The green fluorescent protein (GFP) cDNA (at 1/10 the amount of channel cDNA) was co-transfected with channel cDNA to aid the identification of transfected cells under the microscope in patch clamp experiments. All cDNAs were sequence verified.
(§2) Cells were freshly dissociated with CellStripper (Corning) and dispersed in a chamber on the stage of an inverted microscope. Upon formation of the whole-cell conformation, the cell was lifted from the bottom of the chamber and placed at the tip of a tubing perfusing an extracellular solution containing (in mM): 149 NaCl, 2 CaCl2, 4 KCl, 1 MgCl2, 5 glucose, 10 HEPES, pH 7.4, 310 mOsm/L. Extracellular solutions at more basic or acidic pHs were made by titrating the above pH 7.4 solution with NaOH or HCl (5 mM MES was added to solutions at pH 6.0 and lower). Pipette electrodes were filled with an intracellular solution containing (in mM): 135 KCl, 4 MgATP, 0.3 Na2GTP, 10 EGTA, and 20 HEPES, pH 7.2, 290 mOsm/L.
(§3) All recordings were performed at room temperature using an Axopatch 200B amplifier and pClamp 11 software (Molecular Devices). Currents were measured by whole-cell patch clamp, digitized at 10 kHz and lowpass filtered at 2 kHz. Series resistance was 75% compensated. Responses were elicited by rapid perfusion of acidic solutions using the SF-77B Fast-Step Perfusion device (Warner Instruments) for 40 ms once every 30 s (unless indicated otherwise) and recorded till steady state was reached. The holding potential was 0 mV unless indicated otherwise.
(§4) Baseline values (i.e., current amplitudes at the conditioning pH) were subtracted to obtain responses evoked by the test pH. Responses were normalized for each cell before averaging (see figure legends for more detail on normalization for each type of experiment). Concentration–response data were fitted to a logistic function of the form: R = (A1–A2)/(1 + (C/C0)^h)+A2, where R is the normalized response, C is either pH or compound concentration, C0 is the pH/concentration at which half-maximal response occurs (pH50 or IC50), h is the Hill coefficient, and A1 and A2 are constants. Kinetic parameters were obtained by fitting the data with either a single or double exponential function. Fitted data are shown as solid, dashed, or dotted curves.

[2] = target: T1, rat ASIC1a; assay: Kinetics of onset of and recovery (wash) from compound inhibition; type: cell-based; details: holding pH 8.2, pH 6.0 test pulses
Method: as §1, §2, §3, §4

- inhibition at 0.01 µM ([1]; CHO, pH 6, pH6.0, 10 nM, read-out: current inhibition, mean (source data Fig. 1e)): 23.5%
- inhibition at 0.03 µM ([1]; CHO, pH 6, pH6.0, 30 nM, read-out: current inhibition, mean (source data Fig. 1e)): 45.7%
- inhibition at 0.1 µM ([1]; CHO, pH 6, pH6.0, 100 nM, read-out: current inhibition, mean (source data Fig. 1e)): 66.3%
- inhibition at 0.3 µM ([1]; CHO, pH 6, pH6.0, 300 nM, read-out: current inhibition, mean (source data Fig. 1e)): 78.3%
- inhibition at 1 µM ([1]; CHO, pH 6, pH6.0, 1000 nM, read-out: current inhibition, mean (source data Fig. 1e)): 80.7%
- inhibition at 0.003 µM ([1]; CHO, pH 7.1, pH7.1, 3 nM, read-out: current inhibition, mean (source data Fig. 1e)): 45.1%
- inhibition at 0.01 µM ([1]; CHO, pH 7.1, pH7.1, 10 nM, read-out: current inhibition, mean (source data Fig. 1e)): 74.6%
- inhibition at 0.03 µM ([1]; CHO, pH 7.1, pH7.1, 30 nM, read-out: current inhibition, mean (source data Fig. 1e)): 94.4%
- inhibition at 0.1 µM ([1]; CHO, pH 7.1, pH7.1, 100 nM, read-out: current inhibition, mean (source data Fig. 1e)): 99.1%
- max %inhibition ([1]; test pH 6.0, holding pH 8.2): 83.1 ± 1.2%
- IC50 ([1]; test pH 6.0, holding pH 8.2, WT): 24.9 ± 1.3 nM
- IC50 ([1]; test pH 7.1, holding pH 8.2): 3.6 ± 0.2 nM
- max %inhibition ([1]; test pH 7.1, holding pH 8.2): 100%
- time constant of current inhibition ([2]; 100 nM): 1.6 ± 0.1 s
- time constant of current inhibition ([2]; 1 µM): 0.2248 ± 0.0189 s
Structure (SMILES): COc1ccc(Oc2ccc(-c3nc4cc(C(=N)N)ccc4[nH]3)cc2)cc1OC [JNJ-799760]
